“Also recorded” adds a separate entry of the source.
Tests used:
CCR3/2 chimera = molecular target: T1, CCR3/2 chimera (Homo sapiens, UniProt P51677); assay: 125I-eotaxin binding assay on CHO CCR3/2 clone 5.5 cells
T1 construct: The total length of the CCR3/2 chimeric molecule described herein is 356 amino acids; CCR2B cytoplasmic tail (fusion partner replacing the CCR3 C terminus); expressed in transfected cells
T1 sequence (P51677 with tags, fused parts or gaps): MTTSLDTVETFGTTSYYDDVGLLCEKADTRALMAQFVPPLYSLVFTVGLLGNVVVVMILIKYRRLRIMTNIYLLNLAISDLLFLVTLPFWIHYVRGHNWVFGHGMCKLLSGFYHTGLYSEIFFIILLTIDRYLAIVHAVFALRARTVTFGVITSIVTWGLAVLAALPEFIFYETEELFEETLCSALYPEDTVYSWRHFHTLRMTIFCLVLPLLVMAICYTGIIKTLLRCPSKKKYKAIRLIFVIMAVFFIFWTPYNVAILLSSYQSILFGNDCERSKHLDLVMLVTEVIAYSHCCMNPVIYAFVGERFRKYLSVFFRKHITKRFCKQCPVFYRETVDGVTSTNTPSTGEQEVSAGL
Procedure: (§1) In order to compare the ability of cells expressing chimeric human CCR3/2 molecules to that of cells expressing endogenous human CCR3 to bind eotaxin, a binding assay was performed. Depending upon the questions being asked, the cells in question were either human or mouse eosinophils, CHO-K1 cells expressing recombinant CCR3 or CCR3/2, parental CHO-K1 cells or other cell types. All assay steps were conducted at room temperature. Multiscreen assay plates (#MABVN1250, Millipore Inc., Marlborough, Mass.) were incubated with 100 μl/well of blocking solution (7.5 μg/ml protamine in PBS) to block non-specific binding. After 20 minutes, the blocking solution was removed and replaced with 100 μl of binding buffer, (RPMI 1640 (Life Technologies, Grand Island, N.Y.) containing 0.1% bovine serum albumin and 20 mM HEPES buffer) and incubated for at least an additional 10 minutes.
(§2) When ready to use plate(s), the following procedure was employed. Remove the binding buffer and add the following to the well types indicated:
(§3) to TOTAL binding wells add 50 μl of binding buffer;
(§4) to NON-SPECIFIC binding wells add 50 μl of unlabeled human eotaxin to 100 nM and 1000 nM final concentration (recombinant human eotaxin—#320-EO/CF, R&D Systems, Minneapolis, Minn.) in 50 μl binding buffer; […]
(§5) Binding data were analyzed using Microsoft EXCEL and then graphed using GRAPHPAD PRISMT™. […]

CCR3 = molecular target: T2, CCR3 (Homo sapiens, UniProt P51677); assay: 125I-eotaxin binding assay on human eosinophils; details: native human eosinophils; 0.15 nM 125I-labeled human eotaxin; room temperature
T2 construct: cells expressing endogenous human CCR3; endogenous in cells; host or cells: native human eosinophils
T2 sequence (P51677 1-355): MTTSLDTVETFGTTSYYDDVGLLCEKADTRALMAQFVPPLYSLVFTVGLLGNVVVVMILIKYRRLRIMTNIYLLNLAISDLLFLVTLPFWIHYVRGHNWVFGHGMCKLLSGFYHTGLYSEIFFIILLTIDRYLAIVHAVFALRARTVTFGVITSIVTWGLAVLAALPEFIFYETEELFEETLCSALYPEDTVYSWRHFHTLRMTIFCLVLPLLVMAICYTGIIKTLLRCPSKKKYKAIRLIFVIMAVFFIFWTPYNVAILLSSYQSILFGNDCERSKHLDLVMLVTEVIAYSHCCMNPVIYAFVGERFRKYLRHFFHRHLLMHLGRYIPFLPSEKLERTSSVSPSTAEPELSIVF
Procedure: as §1, §2, §3, §4, §5

chimeric CCR3/2 receptor = molecular target: T3, chimeric CCR3/2 receptor (Homo sapiens, UniProt P51677); assay: phospho-ERK western blot after eotaxin stimulation of CHO CCR3/2 clone 5.5 cells; type: cell-based; details: nanomolar eotaxin
T3 construct: The total length of the CCR3/2 chimeric molecule described herein is 356 amino acids; CCR2B cytoplasmic tail (fusion partner replacing the CCR3 C terminus); expressed in transfected cells
T3 sequence (P51677 with tags, fused parts or gaps): T1 sequence (P51677 with tags, fused parts or gaps)
Description: Part of the downstream signalling cascade involves the activity of kinases (proteins that add phosphate groups to specific residues in cellular proteins, thereby causing them to take on new activities and cellular roles). In the present Example, the phosphorylation of Erk (a member of a protein kinase signalling cascade) is considered to be an indication that binding of eotaxin at the cell surface is recognized by the cell signalling machinery that lies within the cytoplasm and nucleus.
Thus, the present invention further provides that a chimeric chemokine receptor (e.g., the chimeric CCR3/2 receptor) when expressed in cells is capable of downstream signalling when binding to its cognate ligand (e.g., eotaxin). Such downstream signalling involves the MAP kinase pathway, more specifically, the phosphorylation of Erk1 and Erk2 subsequent to binding of eotaxin by either CCR3 or CCR3/2.
Analysis of cell stimulation for phospho-ERK analysis by western blotting was done as previously described (Scherle et al., (1998) J. Immunol. 161(10):5681-86) with the exception that cells were specifically stimulated by exposure to eotaxin (nanomolar exposures to eotaxin listed on the bottoms of FIGS. 7A and 7B) instead of the more generic stimulant lipopolysaccharide as described in Sherle et al. (Scherle et al., (1998) J. Immunol. 161(10):5681-86).

| Molecule | competition with labeled eotaxin for binding (drug inhibition curve) (CCR3/2 chimera; CHO CCR3/2 clone 5.5, 0.15 nM 125I-labeled human eotaxin, room temperature) | competition with labeled eotaxin for binding (drug inhibition curve) (CCR3) | eotaxin binding (CCR3/2 chimera; CHO cells expressing human CCR3/2) | Erk phosphorylation (downstream signalling) on exposure to eotaxin (chimeric CCR3/2 receptor) |
| --- | --- | --- | --- | --- |
| C[C@@H](NC(=O)Nc1cccc(-c2nnnn2C)c1)[C@@H](O)CN1CCC[C@@H](Cc2ccc(F)cc2)C1 [Compound 1, N-{(1R,2S)-3-[(3S)-3-(4-fluorobenzyl)-1-piperidinyl]-2-hydroxy-1-methylpropyl}-N′-[3-(1-methyl-1H-tetraazol-5-yl)phenyl]urea] | comparable; also recorded: compete with eotaxin for binding | comparable | – | – |
| eotaxin: recombinant human eotaxin, chemokine peptide ligand of CCR3 (R&D Systems #320-EO/CF; 125I-labeled form from Perkin Elmer) | – | – | high levels of specific eotaxin binding; also recorded: high affinity | able to transmit a signal |
